The source made the active and inactive calls. The rule behind the calls is not given here.
Key:
Galectin-8 [1] = biological target: T1, Galectin-8 (Homo sapiens, UniProt O00214); experiment: Binding affinity to human galactin-8 N terminal domain assessed as dissociation constant by competitive fluorescence polarization assay
T1 sequence (O00214 whole entry): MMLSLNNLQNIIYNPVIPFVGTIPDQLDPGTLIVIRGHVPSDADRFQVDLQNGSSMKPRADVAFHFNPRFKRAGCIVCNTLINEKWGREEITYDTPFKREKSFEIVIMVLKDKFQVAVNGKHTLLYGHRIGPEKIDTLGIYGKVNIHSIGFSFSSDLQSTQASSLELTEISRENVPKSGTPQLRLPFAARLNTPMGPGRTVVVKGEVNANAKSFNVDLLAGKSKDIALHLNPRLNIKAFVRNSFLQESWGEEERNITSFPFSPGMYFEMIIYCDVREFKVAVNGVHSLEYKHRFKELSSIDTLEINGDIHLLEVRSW

Galectin-3 [2] = biological target: T2, Galectin-3 (Homo sapiens, UniProt P17931); experiment: Binding affinity to human galactin-3 assessed as dissociation constant by competitive fluorescence polarization assay
T2 sequence (P17931 whole entry, the tested form may be a part): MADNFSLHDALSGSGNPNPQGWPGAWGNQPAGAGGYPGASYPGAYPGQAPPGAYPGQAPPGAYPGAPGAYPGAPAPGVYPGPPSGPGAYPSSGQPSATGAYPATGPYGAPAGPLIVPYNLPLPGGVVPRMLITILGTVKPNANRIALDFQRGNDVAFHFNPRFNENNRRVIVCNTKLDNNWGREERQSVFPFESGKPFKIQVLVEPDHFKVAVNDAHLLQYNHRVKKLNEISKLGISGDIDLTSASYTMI

Homo sapiens [3] = species on record: Homo sapiens; experiment: Selectivity ratio of Kd for binding affinity to human galactin-8 N terminal domain to Kd for binding affinity to human galactin-3
Galectin-1 = Galectin-1 (Homo sapiens, UniProt P09382); experiment: Binding affinity to human galactin-1 assessed as dissociation constant by competitive fluorescence polarization assay
Sequence of Galectin-1 (P09382 whole entry): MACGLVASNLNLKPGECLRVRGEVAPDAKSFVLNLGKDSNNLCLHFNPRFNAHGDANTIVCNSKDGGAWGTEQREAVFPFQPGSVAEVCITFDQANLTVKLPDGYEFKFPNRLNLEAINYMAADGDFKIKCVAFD

Galectin-2 = biological target: T3, Galectin-2 (Homo sapiens, UniProt P05162); experiment: Binding affinity to human galactin-2 assessed as dissociation constant by competitive fluorescence polarization assay
T3 sequence (P05162 whole entry): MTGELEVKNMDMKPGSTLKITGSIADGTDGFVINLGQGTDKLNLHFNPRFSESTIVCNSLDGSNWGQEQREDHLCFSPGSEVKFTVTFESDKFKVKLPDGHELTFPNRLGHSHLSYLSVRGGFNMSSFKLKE

Galectin-4 [4] = biological target: T4, Galectin-4 (Homo sapiens, UniProt P56470); experiment: Binding affinity to human galactin-4 N terminal domain assessed as dissociation constant by competitive fluorescence polarization assay
T4 sequence (P56470 whole entry): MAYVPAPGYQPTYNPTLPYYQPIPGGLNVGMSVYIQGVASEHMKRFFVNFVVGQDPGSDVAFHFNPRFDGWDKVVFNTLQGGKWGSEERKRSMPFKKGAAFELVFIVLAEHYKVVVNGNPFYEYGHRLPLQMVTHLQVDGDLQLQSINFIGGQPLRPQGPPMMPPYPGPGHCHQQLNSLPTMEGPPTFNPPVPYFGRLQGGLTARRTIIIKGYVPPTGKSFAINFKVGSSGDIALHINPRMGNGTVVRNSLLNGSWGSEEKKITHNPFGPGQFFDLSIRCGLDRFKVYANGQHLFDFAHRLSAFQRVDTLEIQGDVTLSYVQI

Galectin-4 [5] = biological target: T4, Galectin-4; experiment: Binding affinity to human galactin-4 C terminal domain assessed as dissociation constant by competitive fluorescence polarization assay
Galectin-7 = Galectin-7 (Homo sapiens, UniProt P47929); experiment: Binding affinity to human galactin-7 assessed as dissociation constant by competitive fluorescence polarization assay
Sequence of Galectin-7 (P47929 whole entry, the tested form may be a part): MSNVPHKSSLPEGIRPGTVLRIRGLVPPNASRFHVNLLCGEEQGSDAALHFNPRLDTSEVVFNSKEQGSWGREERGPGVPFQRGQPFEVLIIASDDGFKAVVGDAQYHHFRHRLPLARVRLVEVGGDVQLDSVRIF

Galectin-8 [6] = biological target: T1, Galectin-8; experiment: Binding affinity to human galactin-8 C terminal domain assessed as dissociation constant by competitive fluorescence polarization assay
Galectin-9 [7] = biological target: T5, Galectin-9 (Homo sapiens, UniProt O00182); experiment: Binding affinity to human galactin-9 N terminal domain assessed as dissociation constant by competitive fluorescence polarization assay
T5 sequence (O00182 whole entry, the tested form may be a part): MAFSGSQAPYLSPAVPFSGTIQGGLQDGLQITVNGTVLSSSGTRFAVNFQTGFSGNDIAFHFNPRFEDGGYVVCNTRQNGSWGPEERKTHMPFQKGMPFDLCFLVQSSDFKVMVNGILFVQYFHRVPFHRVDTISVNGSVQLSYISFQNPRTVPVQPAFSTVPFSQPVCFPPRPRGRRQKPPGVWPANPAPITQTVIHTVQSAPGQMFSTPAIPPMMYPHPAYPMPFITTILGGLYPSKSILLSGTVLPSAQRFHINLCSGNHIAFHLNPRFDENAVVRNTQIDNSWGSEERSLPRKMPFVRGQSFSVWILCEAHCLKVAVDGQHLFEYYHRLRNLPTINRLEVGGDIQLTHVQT

Galectin-9 [8] = biological target: T5, Galectin-9; experiment: Binding affinity to human galactin-9 C terminal domain assessed as dissociation constant by competitive fluorescence polarization assay
Homo sapiens [9] = species on record: Homo sapiens; experiment: Selectivity ratio of Kd for binding affinity to human galactin-9 N terminal domain to binding affinity to human galactin-8 N terminal domain
Galectin-8 [10] = biological target: T1, Galectin-8; experiment: Binding affinity to galectin-8 N-terminal domain (unknown origin)
Galectin-3 [11] = biological target: T2, Galectin-3; experiment: Binding affinity to galectin-3 (unknown origin)
Galectin-3 [12] = biological target: T2, Galectin-3; experiment: Binding affinity to human galactin-3 assessed as dissociation constant at 1500 uM by competitive fluorescence polarization assay
Homo sapiens [13] = species on record: Homo sapiens; experiment: Selectivity ratio of Kd for binding affinity to human galactin-9 C terminal domain to binding affinity to human galactin-8 N terminal domain
[14] = biological target: T6, Galectin-8 (Homo sapiens) (UniProt O00214); experiment: Binding affinity to human galactin-8 N terminal domain assessed as dissociation constant at 1500 uM by competitive fluorescence polarization assay
T6 sequence (whole entry): T1 sequence (O00214 whole entry)

Kd (Galectin-8 [1]) [µM]	Kd (Galectin-3 [2]) [µM]	SMILES	also measured
1500	230	Cc1ccc(S[C@@H]2O[C@H](CO)[C@H](O)[C@H](OCc3cn(-c4ccc(C(=O)O)cc4)nn3)[C@H]2O)cc1	
1200	690	Cc1ccc(S[C@@H]2O[C@H](CO)[C@H](O)[C@H](OCc3cn(-c4ccccc4C(=O)O)nn3)[C@H]2O)cc1	
640	500	CO[C@@H]1O[C@H](CO)[C@H](O)[C@H](OCc2cn(-c3cccc(C(=O)O)c3)nn2)[C@H]1O	
1200	1600	CO[C@@H]1O[C@H](CO)[C@H](O)[C@H](OCc2nc3ccccc3n2C)[C@H]1O	
1200	490	COC(=O)c1cccc(-n2cc(CO[C@H]3[C@@H](O)[C@@H](CO)O[C@@H](Sc4ccc(C)cc4)[C@@H]3O)nn2)c1	
870	510	CO[C@@H]1O[C@H](CO)[C@H](O)[C@H](OCc2nc3ccccc3s2)[C@H]1O	
1300	190	CO[C@@H]1O[C@H](CO)[C@H](O)[C@H](OCc2cn(-c3ccc(C(=O)O)cc3)nn2)[C@H]1O	
940	> 2000	COC(=O)c1ccc(-n2cc(CO[C@H]3[C@@H](O)[C@@H](CO)O[C@@H](Sc4ccc(C)cc4)[C@@H]3O)nn2)cc1	
1400	330	COC(=O)c1ccccc1-n1cc(CO[C@H]2[C@@H](O)[C@@H](CO)O[C@@H](OC)[C@@H]2O)nn1	
1600	620	CO[C@@H]1O[C@H](CO)[C@H](O)[C@H](OCc2nc3ccccc3o2)[C@H]1O	
1100	> 2000	COC(=O)c1ccccc1-n1cc(CO[C@H]2[C@@H](O)[C@@H](CO)O[C@@H](Sc3ccc(C)cc3)[C@@H]2O)nn1	
760	250	Cc1ccc(S[C@@H]2O[C@H](CO)[C@H](O)[C@H](OCc3cn(-c4cccc(C(=O)O)c4)nn3)[C@H]2O)cc1	
> 2000	700	COC(=O)c1ccc(-n2cc(CO[C@H]3[C@@H](O)[C@@H](CO)O[C@@H](OC)[C@@H]3O)nn2)cc1	
810	510	COC(=O)c1cccc(-n2cc(CO[C@H]3[C@@H](O)[C@@H](CO)O[C@@H](OC)[C@@H]3O)nn2)c1	
1600	2000	CCOC(=O)c1ccc2c(c1)nc(CO[C@H]1[C@@H](O)[C@@H](CO)O[C@@H](OC)[C@@H]1O)n2C	
310	590	CO[C@@H]1O[C@H](CO)[C@H](O)[C@H](OCc2nc3ccc(C(=O)O)cc3[nH]2)[C@H]1O	
		O=C(O)c1ccc2ccc(CO[C@@H]3[C@@H](O)[C@@H](Sc4ccc(Cl)c(Cl)c4)O[C@H](CO)[C@@H]3O)nc2c1	Kd (Galectin-8 [10]): 1.5 µM; Kd (Galectin-3 [11]): 1.2 µM
1100		COC(=O)c1ccc2nc(CO[C@H]3[C@@H](O)[C@@H](CO)O[C@@H](OC)[C@@H]3O)n(C)c2c1	Activity (Galectin-3 [12]): inactive
1200	1600	COC(=O)c1ccc2nc(CO[C@H]3[C@@H](O)[C@@H](CO)O[C@@H](OC)[C@@H]3O)[nH]c2c1	
2.8	4.1	O=C(O)c1ccc2nc(CO[C@@H]3[C@@H](O)[C@@H](Sc4ccc(Cl)c(Cl)c4)O[C@H](CO)[C@@H]3O)[nH]c2c1	Kd (Galectin-1): 87 µM; Kd (Galectin-2): 100 µM; Kd (Galectin-4 [4]): 78 µM; Kd (Galectin-4 [5]): 160 µM; Kd (Galectin-7): 43 µM; Kd (Galectin-8 [6]): 450 µM; Kd (Galectin-9 [7]): 13 µM; Kd (Galectin-9 [8]): 18 µM; Selectivity ratio (Homo sapiens [9]): 5; Selectivity ratio (Homo sapiens [13]): 9
860	1500	CO[C@@H]1O[C@H](CO)[C@H](O)[C@H](OCc2nc3ccccc3[nH]2)[C@H]1O	
> 2000	1100	CO[C@@H]1O[C@H](CO)[C@H](O)[C@H](OCc2nc3cc(C(=O)O)ccc3n2C)[C@H]1O	
		CO[C@@H]1O[C@H](CO)[C@H](O)[C@H](OCc2ccc3ccccc3n2)[C@H]1O	Kd (Galectin-8 [10]): 700 µM; Kd (Galectin-3 [11]): 620 µM
	470	CO[C@@H]1O[C@H](CO)[C@H](O)[C@H](OCc2cn(-c3ccccc3C(=O)O)nn2)[C@H]1O	Activity [14]: inactive
		CO[C@@H]1O[C@H](CO)[C@H](O)[C@H](OCc2ccc3ccc(C(=O)O)cc3n2)[C@H]1O	Kd (Galectin-8 [10]): 110 µM; Kd (Galectin-3 [11]): 380 µM
190	1400	CO[C@@H]1O[C@H](CO)[C@H](O)[C@H](OCc2nc3ccc(C(=O)O)cc3n2C)[C@H]1O	Selectivity ratio (Homo sapiens [3]): 7

SMILES	Kd (Galectin-8 [1]) [µM]	Kd (Galectin-3 [2]) [µM]	also measured
Cn1c(CO[C@@H]2[C@@H](O)[C@@H](Sc3ccc(Cl)c(Cl)c3)O[C@H](CO)[C@@H]2O)nc2ccc(C(=O)O)cc21	1.8	5	Selectivity ratio (Homo sapiens [3]): 25; Kd (Galectin-1): 130 µM; Kd (Galectin-2): 220 µM; Kd (Galectin-4 [4]): 130 µM; Kd (Galectin-4 [5]): 120 µM; Kd (Galectin-7): 190 µM; Kd (Galectin-8 [6]): 760 µM; Kd (Galectin-9 [7]): 16 µM; Kd (Galectin-9 [8]): 45 µM; Selectivity ratio (Homo sapiens [9]): 25

Reference: ChEMBL document CHEMBL4831499, “Benzimidazole-galactosides bind selectively to the Galectin-8 N-Terminal domain: Structure-based design and optimisation” (Eur J Med Chem, 2021)
